Test results published in patent publication US11932624B2, “MDM2 degraders and uses thereof” (Kymera Therapeutics, Inc., priority 2020, dated 2024).

These molecules were tested on RS411 cells (assay: Cell Viability CTG Assay (CellTiter Glo) in RS411 cells). Details: Homo sapiens, RS4-11, 24 h, duration 1 day.
Format: cell-based
Description: Example 23. Cell Viability CTG Assay
Day 0: Compounds or DMSO 60 nL were stamped to the cell plate as the platemap. RS411 cells were centrifuged at 800 rpm for 5 min, suspended with culture medium, and counted with Countess (Invitrogen). The cell density was adjusted to the recommend information. 30 μL of cell solution (1000 cells/well) was added to the assay plate as the platemap and 30 uL of media was added to column 2 and column 23 as the platemap. The plate was spun down briefly. The final concentration of the compounds started at 10 μM (3 fold dilution and 11 doses) and final DMSO concentration was 0.2%. The plate was spun down briefly and incubated at 37° C., 5% CO2 for 1-4 days.
30 μL CellTiter Glo reagent was added to each well and the plate was centrifuged at 1000 rpm for 30 sec. The plate was shaken for 1 min and centrifuged at 1000 rpm for 30 sec. The plate was incubated at RT for 10 min to stabilize the luminescent signal and the luminescence was read by EnVision.
The letter codes for IC50 indicate the concentration of compound required to affect 50% of cells: A (<0.05 μM), B (0.05-0.1 μM), C (0.1-0.5 μM), D (0.5-1.0 μM), and E (>1.0 μM).
`Cn1c(=O)n(C2CCC(=O)NC2=O)c2cccc(C#CCNC(=O)c3ccc(NC(=O)[C@@H]4NC5(CCCCC5)[C@@]5(C(=O)Nc6cc(Cl)ccc65)[C@H]4c4cccc(Cl)c4F)cc3)c21` (stereo partly drawn) [I-46] was tested, and the IC50 was under 0.05 µM. `Cn1c(=O)n(C2CCC(=O)NC2=O)c2cccc(C#C[C@@H]3CN(C(=O)c4ccc(NC(=O)[C@@H]5NC6(CCCCC6)[C@@]6(C(=O)Nc7cc(Cl)ccc76)[C@H]5c5cccc(Cl)c5F)cc4)CCO3)c21` (stereo partly drawn) [I-47] showed an IC50 of 0.05 to 0.1 µM. Molecule `Cn1c(=O)n(C2CCC(=O)NC2=O)c2ccc(C#CCCNC(=O)c3ccc(NC(=O)[C@@H]4NC5(CCCCC5)[C@@]5(C(=O)Nc6cc(Cl)ccc65)[C@H]4c4cccc(Cl)c4F)cc3)cc21` (stereo partly drawn) [I-48] has an IC50 of under 0.05 µM. In the case of `Cn1c(=O)n(C2CCC(=O)NC2=O)c2cccc(CN3CCC(OC4CCN(C(=O)c5ccc(NC(=O)[C@@H]6NC7(CCCCC7)[C@@]7(C(=O)Nc8cc(Cl)ccc87)[C@H]6c6cccc(Cl)c6F)cc5)CC4)CC3)c21` (stereo partly drawn) [I-49], the IC50 is reported as under 0.05 µM. Work on `Cn1c(=O)n(C2CCC(=O)NC2=O)c2cccc(CCCC(=O)N3CCN(C(=O)c4ccc(NC(=O)[C@@H]5NC6(CCCCC6)[C@@]6(C(=O)Nc7cc(Cl)ccc76)[C@H]5c5cccc(Cl)c5F)cc4)CC3)c21` (stereo partly drawn) [I-50] yielded an IC50 of under 0.05 µM. Molecule `Cn1c(=O)n(C2CCC(=O)NC2=O)c2cccc(C#CCCCNC(=O)c3ccc(NC(=O)[C@@H]4NC5(CCCCC5)[C@@]5(C(=O)Nc6cc(Cl)ccc65)[C@H]4c4cccc(Cl)c4F)cc3)c21` (stereo partly drawn) [I-51] has an IC50 of under 0.05 µM. `CN(CCCOCCCc1cccc2c1n(C)c(=O)n2C1CCC(=O)NC1=O)C(=O)c1ccc(NC(=O)[C@@H]2NC3(CCCCC3)[C@@]3(C(=O)Nc4cc(Cl)ccc43)[C@H]2c2cccc(Cl)c2F)cc1` (stereo partly drawn) [I-52] showed an IC50 of under 0.05 µM. Work on `Cn1c(=O)n(C2CCC(=O)NC2=O)c2cccc(CCC3CC4(CCN(C(=O)c5ccc(NC(=O)[C@@H]6NC7(CCCCC7)[C@@]7(C(=O)Nc8cc(Cl)ccc87)[C@H]6c6cccc(Cl)c6F)cc5)CC4)C3)c21` (stereo partly drawn) [I-53] yielded an IC50 of 0.05 to 0.1 µM. With `O=C1CCC(n2c(=O)oc3c(CCCOC4CCN(C(=O)c5ccc(NC(=O)[C@@H]6NC7(CCCCC7)[C@@]7(C(=O)Nc8cc(Cl)ccc87)[C@H]6c6cccc(Cl)c6F)cc5)CC4)cccc32)C(=O)N1` (stereo partly drawn) [I-54] the IC50 was 0.05 to 0.1 µM. With `Cn1c(=O)n(C2CCC(=O)NC2=O)c2cccc(N3CCC4(CCN(C(=O)c5ccc(NC(=O)[C@@H]6NC7(CCCCC7)[C@@]7(C(=O)Nc8cc(Cl)ccc87)[C@H]6c6cccc(Cl)c6F)cc5)CC4)CC3)c21` (stereo partly drawn) [I-55] the IC50 was 0.05 to 0.1 µM. `CN(C[C@@H]1CN(CC#Cc2ccc3c(c2)n(C)c(=O)n3C2CCC(=O)NC2=O)CCO1)C(=O)c1ccc(NC(=O)[C@@H]2NC3(CCCCC3)[C@@]3(C(=O)Nc4cc(Cl)ccc43)[C@H]2c2cccc(Cl)c2F)cc1` (stereo partly drawn) [I-56] gave an IC50 of under 0.05 µM. Work on `O=C1CCC(n2c(=O)oc3cc(CCCOCCOCCNC(=O)c4ccc(NC(=O)[C@@H]5NC6(CCCCC6)[C@@]6(C(=O)Nc7cc(Cl)ccc76)[C@H]5c5cccc(Cl)c5F)cc4)ccc32)C(=O)N1` (stereo partly drawn) [I-57] yielded an IC50 of under 0.05 µM. Molecule `Cn1c(=O)n(C2CCC(=O)NC2=O)c2cccc(C3CCN(C(=O)c4ccc(NC(=O)[C@@H]5NC6(CCCCC6)[C@@]6(C(=O)Nc7cc(Cl)ccc76)[C@H]5c5cccc(Cl)c5F)cc4)CC3)c21` (stereo partly drawn) [I-58] has an IC50 of under 0.05 µM. Molecule `Cn1c(=O)n(C2CCC(=O)NC2=O)c2cccc(NCC3CC4(C3)CN(C(=O)c3ccc(NC(=O)[C@@H]5NC6(CCCCC6)[C@@]6(C(=O)Nc7cc(Cl)ccc76)[C@H]5c5cccc(Cl)c5F)cc3)C4)c21` (stereo partly drawn) [I-59] has an IC50 of under 0.05 µM. Molecule `Cn1c(=O)n(C2CCC(=O)NC2=O)c2cccc(C#CCN3CCC4(CC3)CN(C(=O)c3ccc(NC(=O)[C@@H]5NC6(CCCCC6)[C@@]6(C(=O)Nc7cc(Cl)ccc76)[C@H]5c5cccc(Cl)c5F)cc3)C4)c21` (stereo partly drawn) [I-60] has an IC50 of under 0.05 µM. Work on `Cn1c(=O)n(C2CCC(=O)NC2=O)c2cccc(CCN3CC4(CCN(C(=O)c5ccc(NC(=O)[C@@H]6NC7(CCCCC7)[C@@]7(C(=O)Nc8cc(Cl)ccc87)[C@H]6c6cccc(Cl)c6F)cc5)CC4)C3)c21` (stereo partly drawn) [I-61] yielded an IC50 of under 0.05 µM. `CN(CCC#Cc1cccc2c1n(C)c(=O)n2C1CCC(=O)NC1=O)C(=O)c1ccc(NC(=O)[C@@H]2NC3(CCCCC3)[C@@]3(C(=O)Nc4cc(Cl)ccc43)[C@H]2c2cccc(Cl)c2F)cc1` (stereo partly drawn) [I-62] was tested, and the IC50 was 0.05 to 0.1 µM. Work on `CN(C(=O)c1ccc(NC(=O)[C@@H]2NC3(CCCCC3)[C@@]3(C(=O)Nc4cc(Cl)ccc43)[C@H]2c2cccc(Cl)c2F)cc1)C1CCN(Cc2cccc3c2n(C)c(=O)n3C2CCC(=O)NC2=O)CC1` (stereo partly drawn) [I-63] yielded an IC50 of under 0.05 µM. `Cn1c(=O)n(C2CCC(=O)NC2=O)c2cccc(CCCOC3CCN(C(=O)c4ccc(NC(=O)[C@@H]5NC6(CCCCC6)[C@@]6(C(=O)Nc7cc(Cl)ccc76)[C@H]5c5cccc(Cl)c5F)cc4)CC3)c21` (stereo partly drawn) [I-64] was tested, and the IC50 was under 0.05 µM. With `Cn1c(=O)n(C2CCC(=O)NC2=O)c2cccc(N3CCC4(CC3)CN(C(=O)c3ccc(NC(=O)[C@@H]5NC6(CCCCC6)[C@@]6(C(=O)Nc7cc(Cl)ccc76)[C@H]5c5cccc(Cl)c5F)cc3)C4)c21` (stereo partly drawn) [I-65] the IC50 was under 0.05 µM. With `CN(CCCCCc1ccc2c(c1)n(C)c(=O)n2C1CCC(=O)NC1=O)C[C@H]1CC[C@H](NC(=O)[C@@H]2NC3(CCC(C)(C)CC3)[C@@]3(C(=O)Nc4cc(Cl)ccc43)[C@H]2c2cccc(Cl)c2F)CC1` (stereo partly drawn) [I-66] the IC50 was under 0.05 µM. `Cn1c(=O)n(C2CCC(=O)NC2=O)c2ccc(CCCCCNC(=O)[C@H]3CC[C@H](NC(=O)[C@@H]4NC5(CCCCC5)[C@@]5(C(=O)Nc6cc(Cl)ccc65)[C@H]4c4cccc(Cl)c4F)CC3)cc21` (stereo partly drawn) [I-67, (3′R,4'S,5′R)-6″-chloro-4′-(3-chloro-2-fluorophenyl)-N-((1r,4R)-4-((5-(1-(2,6-dioxopiperidin-3-yl)-3-methyl-2-oxo-2,3-dihydro-1H-benzo[d]imidazol-5-yl)pentyl)carbamoyl)cyclohexyl)-2″-oxodispiro[cyclohexane-1,2′-pyrrolidine-3′,3″-indoline]-5′-carboxamide] gave an IC50 of under 0.05 µM. In the case of `Cn1c(=O)n(C2CCC(=O)NC2=O)c2ccc(C#CC3CCN(C[C@H]4CC[C@H](NC(=O)[C@@H]5NC6(CCC(C)(C)CC6)[C@@]6(C(=O)Nc7cc(Cl)ccc76)[C@H]5c5cccc(Cl)c5F)CC4)CC3)cc21` (stereo partly drawn) [I-68], the IC50 is reported as under 0.05 µM. `Cn1c(=O)n(C2CCC(=O)NC2=O)c2ccc(C#CC3CCN(C(=O)[C@H]4CC[C@H](NC(=O)[C@@H]5NC6(CCCCC6)[C@@]6(C(=O)Nc7cc(Cl)ccc76)[C@H]5c5cccc(Cl)c5F)CC4)CC3)cc21` (stereo partly drawn) [I-69] showed an IC50 of under 0.05 µM. Work on `Cn1c(=O)n(C2CCC(=O)NC2=O)c2ccc(C#CC3CCN(C[C@H]4CC[C@H](NC(=O)[C@@H]5NC6(CCCCC6)[C@@]6(C(=O)Nc7cc(Cl)ccc76)[C@H]5c5cccc(Cl)c5F)CC4)CC3)cc21` (stereo partly drawn) [I-70] yielded an IC50 of under 0.05 µM. `Cn1c(=O)n(C2CCC(=O)NC2=O)c2ccc(C#CC3CCN(C(=O)[C@H]4CC[C@H](NC(=O)[C@@H]5NC6(CCC(C)(C)CC6)[C@@]6(C(=O)Nc7cc(Cl)ccc76)[C@H]5c5cccc(Cl)c5F)CC4)CC3)cc21` (stereo partly drawn) [I-71] showed an IC50 of under 0.05 µM. `Cn1c(=O)n(C2CCC(=O)NC2=O)c2ccc(CCCCCNC(=O)[C@H]3CC[C@H](NC(=O)[C@@H]4NC5(CCC(C)(C)CC5)[C@@]5(C(=O)Nc6cc(Cl)ccc65)[C@H]4c4cccc(Cl)c4F)CC3)cc21` (stereo partly drawn) [I-72] gave an IC50 of under 0.05 µM. Molecule `Cn1c(=O)n(C2CCC(=O)NC2=O)c2ccc(CCCCCNC(=O)c3ccc(NC(=O)[C@@H]4NC5(CCC(C)(C)CC5)[C@@]5(C(=O)Nc6cc(Cl)ccc65)[C@H]4c4cccc(Cl)c4F)cc3)cc21` (stereo partly drawn) [I-74, (3′R,4'S,5′R)-6″-chloro-4′-(3-chloro-2-fluorophenyl)-N-(4-((5-(1-(2,6-dioxopiperidin-3-yl)-3-methyl-2-oxo-2,3-dihydro-1H-benzo[d]imidazol-5-yl)pentyl)carbamoyl)phenyl)-4,4-dimethyl-2″-oxodispiro[cyclohexane-1,2′-pyrrolidine-3′,3″-indoline]-5′-carboxamide] has an IC50 of under 0.05 µM. `Cn1c(=O)n(C2CCC(=O)NC2=O)c2ccc(C#CC3CCN(C(=O)C45CCC(NC(=O)[C@@H]6NC7(CCCCC7)[C@@]7(C(=O)Nc8cc(Cl)ccc87)[C@H]6c6cccc(Cl)c6F)(CC4)CC5)CC3)cc21` (stereo partly drawn) [I-75] gave an IC50 of under 0.05 µM. Molecule `Cn1c(=O)n(C2CCC(=O)NC2=O)c2ccc(C#CC3CCN(C(=O)c4ccc(NC(=O)[C@@H]5NC6(CCC(C)(C)CC6)[C@@]6(C(=O)Nc7cc(Cl)ccc76)[C@H]5c5cccc(Cl)c5F)cc4)CC3)cc21` (stereo partly drawn) [I-76] has an IC50 of 0.1 to 0.5 µM. Molecule `CN1[C@@H](C(=O)Nc2ccc(CN3CCC(CCc4ccc5c(c4)n(C)c(=O)n5C4CCC(=O)NC4=O)CC3)cc2)[C@H](c2cccc(Cl)c2F)[C@]2(C(=O)Nc3cc(Cl)ccc32)C12CCCCC2` (stereo partly drawn) [I-77] has an IC50 of under 0.05 µM. `Cn1c(=O)n(C2CCC(=O)NC2=O)c2ccc(CCCCCNC(=O)c3cccc(NC(=O)[C@@H]4NC5(CCCCC5)[C@@]5(C(=O)Nc6cc(Cl)ccc65)[C@H]4c4cccc(Cl)c4F)c3)cc21` (stereo partly drawn) [I-78] was tested, and the IC50 was under 0.05 µM. For `Cn1c(=O)n(C2CCC(=O)NC2=O)c2ccc(C#CC3CCN(Cc4ccc(NC(=O)[C@@H]5NC6(CCCCC6)[C@@]6(C(=O)Nc7cc(Cl)ccc76)[C@H]5c5cccc(Cl)c5F)cc4)CC3)cc21` (stereo partly drawn) [I-79], the IC50 was under 0.05 µM. `CN1[C@@H](C(=O)Nc2ccc(C(=O)N3CCC(C#Cc4ccc5c(c4)n(C)c(=O)n5C4CCC(=O)NC4=O)CC3)cc2)[C@H](c2cccc(Cl)c2F)[C@]2(C(=O)Nc3cc(Cl)ccc32)C12CCCCC2` (stereo partly drawn) [I-80] showed an IC50 of under 0.05 µM. `CN1[C@@H](C(=O)Nc2ccc(C(=O)NCCCCCc3ccc4c(c3)n(C)c(=O)n4C3CCC(=O)NC3=O)cc2)[C@H](c2cccc(Cl)c2F)[C@]2(C(=O)Nc3cc(Cl)ccc32)C12CCC(C)(C)CC2` (stereo partly drawn) [I-81] gave an IC50 of under 0.05 µM. In the case of `Cn1c(=O)n(C2CCC(=O)NC2=O)c2ccc(C#CCCCNC(=O)[C@H]3CC[C@H](NC(=O)[C@@H]4NC5(CCCCC5)[C@@]5(C(=O)Nc6cc(Cl)ccc65)[C@H]4c4cccc(Cl)c4F)CC3)cc21` (stereo partly drawn) [I-82], the IC50 is reported as under 0.05 µM.
